From patent publication US20240300959A1, “BALASUBRAMIDE DERIVATIVE AND USE THEREOF IN PREPARATION OF MEDICINE FOR TREATING ACUTE LUNG INJURY” (Guangdong Pharmaceutical University, priority 2023, published 2024)

Tests used:
[1] = tested on: mice with acute lung injury caused by intratracheal instillation of lipopolysaccharide; assay: Acute lung injury caused by lung exposure to bacterial endotoxin (intratracheal instillation of LPS); format: in vivo, ICR mice; conditions: for Content of TNF-α in a lung tissue homogenate (% of Model) / Area percentage of alveolar cells (%) / Lung index (%): 6 h after intratracheal LPS; for Area percentage of alveolar cells (%): H&E lung sections; for Change multiple of COX-2 / Change multiple of IL-1β / Change multiple of IL-6 / Change multiple of TNF-α / Change multiple of iNOS: lung tissue RT-PCR; for Body weight (Day 1) / Body weight (Day 2) / Body weight (Day 3): intratracheal LPS model, in g (unit assumed)
Experimental: Grouping, administration and modeling of animals: Male ICR mice were used as experimental animals, which were randomly divided into a control group, a model group, a positive administration group and administration groups according to the body weight. The control group and the model group were administered with a solvent by intraperitoneal injection (the solvent was prepared from DMSO, Kolliphor HS15 and Saline at a ratio of 1:2:7), the positive administration group was administered with 5 mg/kg dexamethasone by intraperitoneal injection, and the administration groups were administered with (+)3C-20 at a concentration of 10 mg/kg and 50 mg/kg, respectively, by intraperitoneal injection. The dexamethasone and the (+)3C-20 were dissolved in the above solvent and were clear and transparent. The administration was continued for 3 days. 2 h after the last administration, the mice were anesthetized with 2.5% isoflurane, necks were disinfected, cortices of the necks were cut, and tracheae were separated. All other groups were administered with 50 μL of 10 mg/mL LPS (LPS dissolved in Saline) at a dose of 20 mg/kg by instillation while the control group was administered with 50 μL of Saline by intratracheal instillation (it.), and the cortices were sutured. 6 h after the instillation of LPS, the mice were sacrificed, and serum and lung tissues were taken for later use. Body weight and lung index: The mice were weighed and randomly divided on day 1 and continuously weighed for 3 days before administration. 2 h after the last administration, the mice were administered with 50 μL of […] LPS by intratracheal instillation. 6 h later, the mice were dissected, and the lungs were taken and weighed.
On day 3, 6 h after the intratracheal instillation of LPS, a part of the mice were subjected to perfusion with PBS and treated with paraformaldehyde to fix the right lobe of the lungs, another part of the mice were dissected to obtain lungs, and the lungs were frozen with liquid nitrogen for later use. The fixed right lungs were stained with hematoxylin-eosin (H&E) after dehydration, paraffin embedding and sectioning. 40 mg of the frozen lungs were cut, 300 μL of an RIPA lysis buffer was added thereto and homogenized by starting for 45 s and stopping for 15 s at a frequency of 60 Hz in 4 cycles for full lysis, and then centrifuged at 12,000 rpm at 4° C. A supernatant was taken, the protein concentration was calibrated and adjusted with a BCA protein assay kit, and then the level of an inflammatory factor TNF-α in lung tissue homogenates of various groups was detected by a commercial TNF-α ELISA kit. Results are shown in Table 10, FIG. 10-1 and FIG. 10-2.
A small amount of frozen lung tissues were taken, a Trizol lysis reagent was added thereto and fully ground, RNA was extracted according to an operation instruction of an RNA extraction kit, and the expression of inflammation related genes in the lung tissues was detected by an RT-PCR technology. Experimental results are shown in Table 11, FIG. 11-1 and FIG. 11-2.

[2] = tested on: bone marrow derived macrophages (BMDMs); assay: CCK-8 cell viability of bone marrow derived macrophages; format: cell-based, C57BL/6J mice; conditions: BMDM cell viability
Experimental: (1) Collection of bone marrow derived macrophages (BMDMs): C57BL/6J mice were sacrificed by dislocation of cervical vertebra, completely soaked and sterilized with 75% ethanol and placed faceup on a mouse board to fix the four limbs, the skin of the hind limbs was cut, the limbs were cut at ankle joints and femoral joints, and muscles and knee joints were removed. Precooled serum-free DMEM was sucked with a 1 mL syringe to rinse the bone marrow until a leg bone turned white, a rinsing solution was filtered with a 200-mesh filter membrane and then collected into a 15 mL centrifuge tube, centrifugation was performed at 500×g for 5 min, a supernatant was discarded, and a cell precipitate was resuspended with 1 mL of a red blood cell lysis buffer. After stomatocytosis was performed for 1 min, 5 mL of DMEM was added to stop the stomatocytosis, centrifugation was performed at 500×g for 5 min, a supernatant was discarded, and cells at a lower layer were resuspended overnight with DMEM containing 10% of FBS. Monocytes were collected by centrifugation and then resuspended with a DMEM culture medium containing 20% of FBS, and M-CSF was added at a final concentration of 25 ng/mL. The cells were inoculated into a 96-well plate at a density of 6×10^5, cultured in a cell incubator with a CO2 concentration of 5% at 37° C. for 48 h, and then cultured by adding M-CSF with a final concentration of 25 ng/mL into each well for 48 h until the monocytes were subjected to adherent culture and differentiation to obtain macrophages.
The expression level of an inflammatory factor TNF-α in a cell supernatant was detected according to an operation instruction of a commercial ELISA kit, and the cell viability at different administration concentrations of (+)3C-20 was determined according to an operation instruction of a CCK-8 kit.

[3] = 10 mg/kg i.p., intratracheal LPS
[4] = 50 mg/kg i.p., intratracheal LPS

Q: Which results are given for `O=C(CCc1ccc(C(F)(F)F)cc1)O[C@@H]1C(=O)NCCc2c([nH]c3ccccc23)[C@H]1c1ccc(C(F)(F)F)cc1` [(+)-3C-20]?
A: Content of TNF-α in a lung tissue homogenate (% of Model) ([1]; 10 mg/kg i.p.): 90.587 ± 7.374 ^ % of Model; Area percentage of alveolar cells (%) ([1]; 10 mg/kg i.p.): 36.611 ± 1.64 %; Change multiple of COX-2 [1, 3]: 2.05 ± 0.38; Change multiple of IL-1β [1, 3]: 13.04 ± 1.24; Change multiple of IL-6 [1, 3]: 17.12 ± 2.28; Change multiple of TNF-α [1, 3]: 13.32 ± 0.94; Change multiple of iNOS [1, 3]: 4.56 ± 0.4; Lung index (%) ([1]; 10 mg/kg intraperitoneal 3 days): 0.656 ± 0.007%; Body weight (Day 1) ([1]; 10 mg/kg intraperitoneal): 27.67 ± 0.38; Body weight (Day 2) ([1]; 10 mg/kg intraperitoneal): 27.44 ± 0.43; Body weight (Day 3) ([1]; 10 mg/kg intraperitoneal): 27.93 ± 0.53; Content of TNF-α in a lung tissue homogenate (% of Model) ([1]; 50 mg/kg i.p.): 61.408 ± 6.525 % of Model; Area percentage of alveolar cells (%) ([1]; 50 mg/kg i.p.): 32.805 ± 0.814 %; Change multiple of COX-2 [1, 4]: 1.14 ± 0.24; Change multiple of IL-1β [1, 4]: 11.94 ± 1.05; Change multiple of IL-6 [1, 4]: 15.11 ± 1.58; Change multiple of TNF-α [1, 4]: 8.56 ± 1.21; Change multiple of iNOS [1, 4]: 3.75 ± 0.72; Lung index (%) ([1]; 50 mg/kg intraperitoneal 3 days): 0.591 ± 0.011 %; Body weight (Day 1) ([1]; 50 mg/kg intraperitoneal): 27.63 ± 0.48; Body weight (Day 2) ([1]; 50 mg/kg intraperitoneal): 27.04 ± 0.48; Body weight (Day 3) ([1]; 50 mg/kg intraperitoneal): 27 ± 0.61; pathological lung injury compared with the model group, in words ([1]; 50 mg/kg, intratracheal LPS): obviously relieving pathological lung injury; Percentage of CCK-8 in a model group (%) ([2]; 0.1 μM): 100.35 ± 3.74%; Percentage of CCK-8 in a model group (%) ([2]; 1 μM): 96.71 ± 2.26%; Percentage of CCK-8 in a model group (%) ([2]; 2.5 μM): 97.49 ± 1.35%; Percentage of CCK-8 in a model group (%) ([2]; 5 μM): 89.87 ± 3.68%
